EP2289882A1, “3-oxopiperazinium derivatives as agonists of nerve growth factor and their use as medicaments” (Institut d'Investigacions Biomédiques August PI I Sunyer, priority 2009, dated 2011)

Columns and labels:
RN22 cells = experiment: RN22 cell survival assay under CuSO4 stress (MTT); assay type: cell-based, rat; details: CuSO4 150 µM stress, 1 ng/ml - 10 µg/ml, 24 h; RN22 expresses p75 but not TrkA
Protocol: Compounds identified from the initial library screening were also tested to assess their capacity to promote cell survival. To delineate p75 signalling independent of TrkA, we used a rat schwannoma cell line (RN22) expressing p75, but not TrkA, (Gentry et al., 2000). Cell culture. The rat schawnnoma cell line RN22 was cultured in 5% CO2 at 37°C in Dulbecco's modified Eagle's medium (DMEM) with 10% fetal bovine serum (FBS) and penicillin/streptomycin. RN22 cells were plated at 20,000 cells/well on a 24-well plate in DMEM alone and after allowing the cells to adhere for 3 days, cupper sulphate (CuSO4) (150 µM) was added with or without NGF (100 ng/ml) or the peptidomimetic molecules A26-23, A26-24 and A28-A6 at different concentrations (1 ng/ml - 10 µg/ml) to generate stress and cell death. After 24 h cell viability was studied by determining the amount of yellow MTT (Sigma) that was reduced to insoluble purple formazan. After removing the medium, the water-insoluble formazan was solubilised with DMSO (Sigma), and the dissolved material was measured spectrophotometrically at a wavelength of 570 nm, subtracting the background at 650 nm (Frade, 2005).

PC12 cells = experiment: PC12 cell differentiation (neurite outgrowth); assay type: cell-based; details: 3 days, 2 ng/ml to 50 µg/ml, reduced serum (0.5% FBS and 1% HS); compared with NGF 100 ng/ml
Protocol: PC 12 cell differentiation was measured by plating cells onto collagen-coated 24-wells plates. NGF (100 ng/ml) or the small chemicals at different concentrations were added and the percentage of cells with neurite processes greater than two cell bodies in length were counted after relevant treatment. For each experiment at least 300 cells were randomly measured (Burstein and Greene, 1978). Cell culture. PC12 cells were maintained at 37°C in DMEM supplemented with 2.5% FBS, 15% of Horse serum (HS) and penicillin/streptomycin in a humidified 5% CO2 incubator. The cells were grown on 60-and 100-mm tissue culture dishes (Becton Dickinson). PC 12 cells were cultured for 3 days in the presence of the peptoids (from 2 ng/ml to 50 µg/ml) under reduced serum conditions (0.5% FBS and 1% HS).

| Compound | survival of RN22 cells (cell viability, MTT) (RN22 cells) | differentiation of PC12 cells (percentage of cells with neurite processes greater than two cell bodies in length) (PC12 cells) |
| --- | --- | --- |
| 8-[2-(2-(5-methyl-1H-indol-2-yl)ethylamino)-2-oxoethyl]-7-oxo-8-aza-5-azoniaspiro[4.5]decane [A28-A6] | not to promote survival of RN22 cells | induce the differentiation of PC12 cells at different concentrations to an extent substantially comparable with that induce by NGF |
| C[N+]1(C)CCN(CC(=O)NCCc2ccc([N+](=O)[O-])cc2)C(=O)C1.[Cl-] [A26-23, 1,1-dimethyl-4-[2-(4-nitrophenethylamino) -2-oxoethyl] -3-oxopiperazinium chloride] | not to promote survival of RN22 cells | induce the differentiation of PC12 cells at different concentrations to an extent substantially comparable with that induce by NGF |
| C[N+]1(Cc2ccccc2)CCN(CC(=O)NCCc2ccc([N+](=O)[O-])cc2)C(=O)C1.[Cl-] (stereo not drawn) [A26-64, 1-benzyl-1-methyl-4-[2-(4-nitrophenethylamino)-2-oxoethyl]-3-oxopiperazinium chloride] | not to promote survival of RN22 cells | induce the differentiation of PC12 cells at different concentrations to an extent substantially comparable with that induce by NGF |
